Data reported in the supplement of paper PMC8882468.
“And” between values parts separate entries of the source, which are not always exact repeats. Equal entries are not always repeated.

Key:
HCI-017.E2 [1] = organoid from an ER-positive breast cancer xenograft; test: CTG-3D luminescence at 96 h relative to day-0 seeding control (ratio to day 0); higher = more growth / less cytotoxicity
Procedure: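 PDX-derived breast cancer organoids (PDxO) in 384-well Matrigel plates, 8-point dose (0.000000625-100 uM), 96 h at 37 C; CellTiter-Glo 3D luminescence normalised to the day-0 seeding control (mean of 4 technical replicates over mean of 4 day-0 wells).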

HCI-010 = organoid from a breast cancer xenograft; test: CTG-3D luminescence at 96 h relative to day-0 seeding control (ratio to day 0); higher = more growth / less cytotoxicity; PDxO 3D drug screen (set 2), 96 h, CTG-3D normalised to day-0 seeding control.
HCI-001 = organoid from a triple-negative breast cancer xenograft; test: as above
MDA-MB-231 = test: as above
HCI-017.E2 [2] = test: as above
HCI-023 = organoid from a triple-negative breast cancer xenograft; test: as above

O=c1[nH]cc(F)c(=O)[nH]1 [5-fluorouracil]
HCI-017.E2 [1]
Conditions	CTG-3D luminescence at 96 h
12.5 pM	1.94
0.00025 µM	2.02
0.005 µM	1.96
0.1 µM	2.04
1 µM	2.05
10 µM	1.88
100 µM	1.64
625 fM	2.219

HCI-017.E2 [1], days in culture: 85
Conditions	CTG-3D luminescence at 96 h
12.5 pM	2.76
0.00025 µM	2.47
0.005 µM	2.46
0.1 µM	2.16
1 µM	2.41
10 µM	1.85
100 µM	1.6
625 fM	2.21

COc1cccc2c1C(=O)c1c(O)c3c(c(O)c1C2=O)C[C@@](O)(C(=O)CO)C[C@@H]3O[C@H]1C[C@H](N)[C@@H](O)[C@H](C)O1 [epirubicin]
CTG-3D luminescence at 96 h
Conditions	12.5 pM	0.00025 µM	0.005 µM	0.1 µM	1 µM	10 µM	100 µM	625 fM
HCI-001, days in culture: 365	2.72	2.24	2.31	1.83	0.374	0.226	-0.00151	2.09
HCI-001, days in culture: 397	1.49	2.3	1.7	1.3	0.405	0.197	-0.00311	1.83
HCI-001, days in culture: 401	1.41	1.96	1.6	1.06	0.216	0.3	-0.00404	1.55
HCI-010, days in culture: 79	1.82	1.96	2.1	0.453	0.114	0.0313	-0.00605	2.12
HCI-010, days in culture: 86	1.93	2.45	2.56	0.972	0.179	0.0423	-0.00278	2.25
HCI-010, days in culture: 102	1.1	1.22	1.01	0.19	0.064	0.0201	-0.000814	0.986
HCI-010, days in culture: 164	1.68	1.75	1.67	0.67	0.214	0.0976	-0.00123	1.45
HCI-017.E2 [2], days in culture: 85	2.09	2.02	1.7	2.1	0.743	1.02	0.0107	1.92
HCI-023, days in culture: 223	1.88	1.76	1.22	1.3	0.154	0.0393	-0.00401	2.21
HCI-023, days in culture: 238	1.44	1.08	0.842	0.9	0.391	0.0393	-0.00422	1.61
HCI-023, days in culture: 252	2.29	2.32	1.59	1.68	0.516	0.0524	-0.00328	1.99

CTG-3D luminescence at 96 h
Conditions	12.5 pM	0.00025 µM	0.005 µM	0.1 µM	1 µM	10 µM	100 µM	625 fM
HCI-017.E2 [2]	2.04	2.99	2.22	2.13	0.562	1.07	0.00216	2.33
MDA-MB-231	5.46 and 4.99	5.52 and 4.95	4.84 and 4.76	3.26 and 3.33	0.232 and 0.543	0.504 and 0.188	-0.0125 and -0.0119	5.48 and 5.03

CO[C@H]1C[C@@H]2CC[C@@H](C)[C@@](O)(O2)C(=O)C(=O)N2CCCC[C@H]2C(=O)O[C@H]([C@H](C)C[C@@H]2CC[C@@H](OCCO)[C@H](OC)C2)CC(=O)[C@H](C)/C=C(\C)[C@@H](O)[C@@H](OC)C(=O)[C@H](C)C[C@H](C)/C=C/C=C/C=C/1C [everolimus]
CTG-3D luminescence at 96 h
Conditions	12.5 pM	0.00025 µM	0.005 µM	0.1 µM	1 µM	10 µM	100 µM	625 fM
HCI-001, days in culture: 365	1.99	1.3	1.52	1.53	1.65	1.34	0.0033	1.24
HCI-001, days in culture: 397	1.23	1.76	1.92	1.59	1.16	1.33	-0.000266	0.913
HCI-001, days in culture: 401	1.21	1.26	1.27	1.07	1.1	1.27	-0.00223	1.41
HCI-010, days in culture: 79	1.18	1.21	1.18	1.28	1.13	1.12	-0.00276	1.31
HCI-010, days in culture: 86	1.76	1.9	1.53	1.19	0.809	0.648	-0.000872	2.35
HCI-010, days in culture: 102	1.16	0.848	0.691	0.497	0.337	0.158	-0.000165	1.13
HCI-010, days in culture: 164	1.53	1.42	1.25	0.906	0.778	0.581	0.000191	1.52
HCI-017.E2 [2], days in culture: 85	2.06	1.86	1.32	0.959	0.595	0.493	0.00146	2.29
HCI-023, days in culture: 223	2.04	1.82	1.17	1.19	0.991	1.28	-0.00123	1.43
HCI-023, days in culture: 238	1.22	1.01	1	1.23	1.61	0.915	-0.00183	1.32
HCI-023, days in culture: 252	1.97	1.75	1.51	1.44	1.55	1.91	-0.00273	1.89

CTG-3D luminescence at 96 h
Conditions	12.5 pM	0.00025 µM	0.005 µM	0.1 µM	1 µM	10 µM	100 µM	625 fM
HCI-017.E2 [2]	1.59	1.63	1.8	1.25	0.822	0.73	0.00266	1.99
MDA-MB-231	5.2 and 4.8	5.04 and 4.75	4.83 and 4.91	4.27 and 4.36	3.79 and 3.62	3.5 and 2.66	-0.00539 and -0.00564	5.28 and 4.71
